In patent publication US20100120690A1, “Polypeptides Having Antimicrobial Activity and Polynucleotides Encoding Same” (Novozymes Adenium Biotech A/S, priority 2005, published 2010):

What was measured:
Type in all cases: cell-based
Staphylococcus carnosus = experiment: TAPS (Trans Acting Peptide System) assay, radial diffusion read-out; parameters: key: classified as 4>3>2>1; whereas 4 is better than 1; classified as 4>3>2>1; classified as 4>3>2>1; wildtype activity corresponds to 1; conditions: peptide expressed in E. coli
Description: A range of antimicrobial polypeptides, which are variants of SEQ ID NO: 1, were tested in the TAPS assay. TAPS may be used to identify new or improved genes encoding peptides that can kill or inhibit the growth of target cells (see PCT application WO 2004/033715). The TAPS assay, an acronym for Trans Acting Peptide System, is based on having a sensitive host producing a peptide followed by screening for its activity in trans against an indicator strain. The advantage of this system is based on that the antimicrobial peptide is expressed in the Gram-negative bacterium E. coli and its antimicrobial activity can be monitored on different microbes including Gram-negatives, positives or fungi. Additionally, TAPS offers the possibility to produce correctly folded AMPs containing disulfide bonds in the host cells, thereby retaining their antimicrobial activities.
The TAPS approach requires first, that expression of the peptide is under control of an inducible promoter with tight regulation, because the host cells are sensitive to the peptide when producing it. Secondly, the produced peptide has to be released to the media so that it can interact with the target organism.
The TAPS screening can be carried out either in solid or liquid media. On solid media, a plasmid library is initially introduced into E. coli host cells. […] In the next step, the filter containing the colonies is transferred to LB growth medium containing inducer (0.1% arabinose) to permit peptide synthesis. Subsequently, the target strain, for example S. carnosus, is overlaid onto the plate and allowed to grow for 12-16 hours at 37° C. Finally, visual inspection of the host cells capable of reducing the proliferation of the target cells is performed and the nucleotide sequence encoding for the antimicrobial peptide is recovered from the host cells. DNA sequence analysis of the variants is obtained to elucidate the nature of the peptide.
As mentioned above, the TAPS screening can also be performed using liquid medium. This procedure requires the use of robotics to analyze large number of clones. In this system, the host E. coli origami cells are transformed with the plasmid library and plated out on LB medium+0.2% glucose+ampicillin (200 mg/L). Independent colonies are then inoculated into 96 or 384-well plates containing 200 micro-L of TB medium+ampicillin (200 mg/L) and cultured overnight at 37° C. These cultures are then replicated robotically and grown to exponential phase until inducer (0.1% arabinose) is added to trigger peptide synthesis. The next step consists in hydrolyzing the cells such that the peptide is released to the media by hot acid hydrolysis. This treatment consists on adding 1 M sodium Phosphate buffer pH 2.3 to obtain a final pH approximately of 2.3 and incubating the cultures overnight at 80° C. Next day, a 25 micro-L aliquot of the hydrolyzed cultures is used to perform an activity test against the desired target organisms. The activity test performed was a Radial Diffusion Assay (RDA) where an aliquot of the hydrolyzed cultures was added to the agarose media inoculated with the target strain, S. carnosus. […] Measurements of the diameter of the clearing zones were performed to quantify the potency of the antimicrobial activity of the peptides.
The antimicrobial activity (against Staphylococcus carnosus) of the tested plectasin variants, which was measured using the TAPS assay, is shown in table 3. The antimicrobial activity corresponds to the clearing zone size and has been classified as 4>3>2>1; whereas 4 is better than 1, and wildtype activity corresponds to 1.

[1] = tested on: panel of 6 different strains of Staphylococcus aureus; experiment: Average MIC, NCCLS/CLSI guidelines using caMHB (Example 6); conditions: average over 6 S. aureus strains, duplicate; MIC above 32 counted as 64; read after 18-24 hours at 37° C.
Outline: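 MICs were determined by broth dilution per NCCLS/CLSI in caMHB against six S. aureus strains (four MSSA, two MRSA), with peptides at 0.03–32 microgram/mL, read after 18-24 h at 37° C. Each was tested in duplicate and the two results averaged; MICs above 32 micrograms/mL were counted as 64.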

[2] = tested on: Staphylococcus aureus, ATCC 29213; experiment: MIC, NCCLS/CLSI guidelines (Example 5), strain A; conditions: relative to wildtype Plectasin; average of two independent experiments
Outline: (§1)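 Relative MIC category versus wild-type plectasin (0 >100%, 1 80-100%, 2 50-80%, 3 <50%), mean of two experiments. Determined per CLSI broth guidelines with expressed, purified peptides.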

[3] = tested on: Staphylococcus aureus, ATCC 25923; experiment: MIC, NCCLS/CLSI guidelines (Example 5), strain B; conditions: relative to wildtype Plectasin; average of two independent experiments
Outline: as §1

[4] = tested on: Staphylococcus aureus, ATCC 29737; experiment: MIC, NCCLS/CLSI guidelines (Example 5), strain C; conditions: relative to wildtype Plectasin; average of two independent experiments
Outline: as §1

[5] = tested on: Staphylococcus aureus, MRSA ST5 (2001); experiment: MIC, NCCLS/CLSI guidelines (Example 5), strain D; conditions: relative to wildtype Plectasin; average of two independent experiments
Outline: (§2)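 MICs of purified plectasin peptides are measured according to NCCLS/CLSI guidance. Each value averages duplicate independent experiments and is given as a category relative to wild-type: 0 above 100%, 1 80-100%, 2 50-80%, 3 below 50%.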

[6] = tested on: Staphylococcus aureus, MRSA ST80 (2003); experiment: MIC, NCCLS/CLSI guidelines (Example 5), strain E; conditions: relative to wildtype Plectasin; average of two independent experiments
Outline: as §2

Row | Sequence | Activity (antimicrobial activity, clearing zone size) (Staphylococcus carnosus) | Average MIC [1] [micrograms/mL] | other results
1 | GFGCNGPWDEDDMRCHNHCKSIKGYRGGYCAKGGFVCKCY [Q14R + K26R] | 4 | 5 | –
2 | GFGCNGPWDEDDMQCHNHCKSIKGYRGGYCAKGGFVCKCY [Mutation K26R] | 3 | 15 | –
3 | GFGCNGPWDEDDMQCHIHCKSIKGYKGGYCAKGGFVCKCY [Mutation N17I] | 2 | 14 | –
4 | GFGCNGPWDEDDKQCHNHCKSIKGYKGGYCAKGGFVCRCY [M13K + K38R] | 4 | 6 | Relative MIC, strain A [2]: 1 (80-100% of Plectasin wildtype MIC); Relative MIC, strain B [3]: 3 (<50% of Plectasin wildtype MIC); Relative MIC, strain C [4]: 3 (<50% of Plectasin wildtype MIC); Relative MIC, strain D [5]: 2 (50-80% of Plectasin wildtype MIC); Relative MIC, strain E [6]: 3 (<50% of Plectasin wildtype MIC)
5 | GFGCNGPWDEDDMQCHYHCKSIKGYKGGYCAKGGFVCKCY [Mutation N17Y] | 3 | 6 | Relative MIC, strain A [2]: 1 (80-100% of Plectasin wildtype MIC); Relative MIC, strain B [3]: 3 (<50% of Plectasin wildtype MIC); Relative MIC, strain C [4]: 3 (<50% of Plectasin wildtype MIC); Relative MIC, strain D [5]: 2 (50-80% of Plectasin wildtype MIC); Relative MIC, strain E [6]: 2 (50-80% of Plectasin wildtype MIC)
6 | GFGCNGPWDEDDKQCHRHCKSIKGYKGGYCAKGGFVCKCY [M13K + N17R] | 3 | – | –
7 | GFGCNGPWDEDDMRCHNHCKSIKGYKGGYCAKGGFICKCY [Q14R + V36I] | 4 | – | –
8 | GFGCNGPWDENDMQCHNHCKFIKGYKGGYCAKGGFVCKCY [D11N + S21F] | 4 | – | –
9 | GFGCNGPWDEDDMLCHNHCKSIKGYKGGYCAKGGFVCKCY [Mutation Q14L] | 4 | 13 | –
10 | GFGCYGPWDEDDMLCHNHCKSIKGYKGGYCAKGGFVCKCY [N5Y + Q14L] | 2 | – | –
11 | GFGCNGPWDEDDKQCHNHCKSIKGYKGGYCAKGGFVCKCY [Mutation M13K] | 3 | 12 | –
12 | GFGCNGPWDEDDMRCHNHCKSIKGYKGGYCAKGGFVCKCY [Mutation Q14R] | 4 | 5 | Relative MIC, strain A [2]: 2 (50-80% of Plectasin wildtype MIC); Relative MIC, strain B [3]: 3 (<50% of Plectasin wildtype MIC); Relative MIC, strain C [4]: 3 (<50% of Plectasin wildtype MIC); Relative MIC, strain D [5]: 3 (<50% of Plectasin wildtype MIC); Relative MIC, strain E [6]: 0 (>100% of Plectasin wildtype MIC)
13 | GFGCYGPWDEDDMQCHNHCKSIKGYKGGYCAKGGFVCKCY [Mutation N5Y] | 2 | – | –
14 | GFGCNGPWDEDDKQCHNHCKSIKGYRGGYCAKGGFVCKCY [M13K + K26R] | 4 | 10 | –
15 | GFGCNGPWDEDDMQCHHHCKSIKGYKGGYCAKGGFVCKCY [Mutation N17H] | 4 | – | –
16 | GFGCNGPWDEDDMQCHRHCKSIKGYKGGYCAKGGFVCKCYR [N17R + Y40YR] | 3 | – | –
17 | GFGCKGPWDEDDMQCHNHCKSIKGYKGGYCAKGGFVCKCY [Mutation N5K] | 2 | 12 | –
18 | GFGCNGPWDEDDKQCHRHCKSIKGYKGGYCAKGGFVCKCYR [M13K + N17R + Y40YR] | 3 | 8 | –
19 | GFGCNGPWDEGDKQCHNHCKSIKGYRGGYCAKGGFVCKCY [D11G + M13K + K26R] | 3 | – | –
20 | GFGCNGPWDEDDMQCHNHCRSIKGYKGGYCAKGGFVCKCY [Mutation K20R] | 2 | – | –
